The results in this text go back to patent US9120787B2, “HIV replication inhibitors” (priority 2011, dated 2015).

Some results are limits rather than exact numbers.

Data set [1] in a line: Cytotoxicity by MTS staining in uninfected MAGI-CCR5 cells. The format is cell-based. To be noted: human, read-out: TC50. The protocol: The anti-viral activity of dihydropyrimidines was shown by inhibition of virus replication in MAGI-CCR5 cells. MAGI-CCR5 cells are derived from HeLa-CD4-LTR-β-galactosidase cells. The cells have been engineered to express high levels of CD4 and CCR5 and contain one copy of the HIV-1 LTR promoter driving expression of the β-galactosidase gene upon HIV-1 Tat transactivation. On the day preceding the assay, the cells were plated at 1.0×10^4 cells per well and maintained at 37° C. and 5% CO2 in a humidified incubator. Total cell count and viability was visually assessed using a hemacytometer and trypan blue exclusion. Compounds were evaluated at six concentrations (triplicate wells/concentration). On the day of assay setup, compound dilutions were prepared at two-times (2×) the final concentrations. Media was decanted and wells were replenished with 50 μl of 2× compounds, followed by the addition of 50 μl of diluted virus. Identical uninfected assays were prepared for parallel cytotoxicity testing.

Data set [2] relates to HIV-1Ba-L. In words: HIV-1Ba-L replication in PBMCs (supernatant RT end-point). The note with it: for TI (TC50/IC50): HIV-1Ba-L in PBMCs; for IC50: Human immunodeficiency virus 1, PBMC, 168 h. The protocol:
Evaluation of Dihydropyrimidines vs. HIV-1Ba-L in Peripheral Blood Mononuclear Cells (PBMCs)
Cultures of pooled phytohemagglutinin stimulated peripheral blood mononuclear cells (PBMC) were seeded into a 96-well plate at plating density of 5×10^4 cells/well. Compounds were serially diluted into media in ½-log increments using a high test of […] and […] of each concentration (nine total concentrations). Cells were infected with HIV strains HIV-1Ba-L and NL4-3 at an MOI=0.1. The PBMCs were cultured for seven days in an humidified incubator maintained at 37° C., 5% CO2 atmosphere. At the assay end-point, the supernatant was collected and analyzed for reverse transcriptase activity. For the RT assay, tritiated thymidine triphosphate (3H-TTP, 80 Ci/mmol) was diluted 1:1 dH2O:Ethanol at 1 mCi/ml. Poly rA:oligo dT template:primer was prepared as a stock solution by combining 150 μl poly rA (20 mg/ml) with 0.5 mL oligo dT (20 units/ml) and 5.35 ml sterile dH2O followed by aliquoting (1.0 ml) and storage at −20° C. The RT reaction buffer contained of 125 ml 1.0 M EGTA, 125 ml dH2O, 125 ml 20% Triton X100, 50 ml 1.0 M Tris (pH 7.4), 50 ml 1.0 M DTT, and 40 ml 1.0 M MgCl2. The final reaction mixture was prepared by combining 1 part 3H-TTP, 4 parts dH2O, 2.5 parts poly rA:oligo dT stock and 2.5 parts reaction buffer. To each well, ten microliters of the reaction mixture and 15 μl of virus containing supernatant were added. The plates were incubated at 37° C. for 60 minutes. Following incubation, the reaction volume was spotted onto DE81 filter-mats, washed 5 times for 5 minutes each in a 5% sodium phosphate buffer or 2×SSC. […] were washed 2 times for 1 minute each in distilled water, 2 times for 1 minute each in 70% ethanol, and then dried. Incorporated radioactivity (counts per minute, CPM) was quantified using standard liquid scintillation techniques.

Data set [3] has as its system HIV-1Ba-L. In words: Inhibition of virus replication in MAGI-CCR5 cells (β-galactosidase reporter). The note with it: HIV-1Ba-L in MAGI-CCR5 cells; for IC50: Human immunodeficiency virus 1, 48 hours, β-galactosidase reporter expression, read-out: IC50. The data set is classed as cell-based. The procedure:
The anti-viral activity of dihydropyrimidines was shown by inhibition of virus replication in MAGI-CCR5 cells. MAGI-CCR5 cells are derived from HeLa-CD4-LTR-β-galactosidase cells. The cells have been engineered to express high levels of CD4 and CCR5 and contain one copy of the HIV-1 LTR promoter driving expression of the β-galactosidase gene upon HIV-1 Tat transactivation. On the day preceding the assay, the cells were plated at 1.0×10^4 cells per well and maintained at 37° C. and 5% CO2 in a humidified incubator. Total cell count and viability was visually assessed using a hemacytometer and trypan blue exclusion.
Compounds were evaluated at six concentrations (triplicate wells/concentration). On the day of assay setup, compound dilutions were prepared at two-times (2×) the final concentrations. Media was decanted and wells were replenished with 50 μl of 2× compounds, followed by the addition of 50 μl of diluted virus. Identical uninfected assays were prepared for parallel cytotoxicity testing.
Evaluation of Dihydropyrimidines vs. HIV-1Ba-L in MAGI-CCR5 Cells

A short description of data set [4]: Cytotoxicity by MTS staining in PBMCs. The format is cell-based. The note with it: human, peripheral blood mononuclear cells (PBMC), MTS staining, read-out: TC50. The protocol:
Cytotoxicity was assessed by MTS staining. At assay end-point, PBMC were stained with the addition of […] of the soluble tetrazolium-based dye MTS to determine cell viability and quantify compound toxicity. The plates were incubated 4 to 6 hrs at 37° C. Following incubation, the activity was assessed by reading absorbance values at 490/650 nm.

For `COc1ccc(-c2csc(C3=C(C)NC(=O)NC3c3cc(Br)cs3)n2)cc1` (stereo not drawn) [Example 40], in data set [1], the CC50 at 48 h was no less than 100 µM. In addition, the “TI (TC50/IC50)” value in the data set on HIV-1Ba-L [2] and in the data set with HIV-1Ba-L [3] was “D (D < 10.0)” each time. Also, the IC50 (usually the concentration at which inhibition is half-maximal) with HIV-1Ba-L [2] is 5 to 100 µM; with HIV-1Ba-L [3], greater than 100 µM. In addition, the CC50 at 7 days in data set [4] was no less than 100 µM.

For the compound `COc1ccc(-c2csc(C3=C(C)NC(=O)NC3c3ccc(-c4ccccc4)cc3)n2)cc1` (stereo not drawn) [Example 43], the CC50 at 48 h in data set [1] was no less than 100 µM. For the same compound, in the data set with HIV-1Ba-L [2], the “TI (TC50/IC50)” value is “D (D < 10.0)” and the IC50 was 5 to 100 µM. Moreover, in the data set on HIV-1Ba-L [3], the “TI (TC50/IC50)” value is listed as “D (D < 10.0)” and the IC50 is greater than 100 µM. Also, in data set [4], the CC50 at 7 days is no less than 100 µM.

`CC1=C(c2nc(-c3ccc(F)cc3)cs2)C(c2cccc(O)c2)NC(=O)N1` (stereo not drawn) [Example 44]: the CC50 at 48 h in data set [1] lay within 50 to 100 µM. Moreover, the “TI (TC50/IC50)” value was “D (D < 10.0)” in the data set with HIV-1Ba-L [2] and “C (C < 50.0 to 10.0)” in the data set with HIV-1Ba-L [3]. The figures for the IC50 in the data set on HIV-1Ba-L [2] and in the data set with HIV-1Ba-L [3] were 5 to 100 µM and 1 to 5 µM, respectively. In data set [4], the CC50 at 7 days is 50 to 100 µM.

Turning to `CC1=C(c2nc(-c3ccc(C#N)cc3)cs2)C(c2ccc(O)cc2)NC(=O)N1` (stereo not drawn) [Example 48], the CC50 at 48 h in data set [1] is no less than 100 µM. Further, in the data set on HIV-1Ba-L [2], the “TI (TC50/IC50)” value is “A (A = TI (TC50/IC50) ≧100.0)” and the IC50 is less than 1 µM. In addition, in the data set on HIV-1Ba-L [3], the “TI (TC50/IC50)” value is “A (A = TI (TC50/IC50) ≧ 100.0)” and the IC50 is less than 1 µM. Further, the CC50 at 7 days in data set [4] was no less than 100 µM.

With `CC1=C(c2nc(-c3ccc(C#N)cc3)cs2)C(c2cccc(F)c2)NC(=O)N1` (stereo not drawn) [Example 50], the CC50 at 48 h in data set [1] is no less than 100 µM. Moreover, in the data set with HIV-1Ba-L [2], the “TI (TC50/IC50)” value is reported as “A (A = TI (TC50/IC50) ≧100.0)” and the IC50 was less than 1 µM. Further, in the data set with HIV-1Ba-L [3], the “TI (TC50/IC50)” value was “C (C < 50.0 to 10.0)” and the half-inhibitory concentration (IC50) was in the range of 1 to 5 µM. Moreover, the CC50 at 7 days in data set [4] is no less than 100 µM.

`CC1=C(c2nc(-c3ccc(C#N)cc3)cs2)C(c2ccc(Oc3ccccc3)cc2)NC(=O)N1` (stereo not drawn) [Example 59]: the CC50 at 48 h in data set [1] was no less than 100 µM. Moreover, the “TI (TC50/IC50)” value in the data set on HIV-1Ba-L [2] is “A (A = TI (TC50/IC50) ≧100.0)”; in the data set with HIV-1Ba-L [3] it was “A (A = TI (TC50/IC50) ≧ 100.0)”. Besides, the IC50 in the data set on HIV-1Ba-L [2] and in the data set with HIV-1Ba-L [3] was less than 1 µM each time. The CC50 at 7 days in data set [4] was no less than 100 µM.

Consider `COc1ccc(C2NC(=O)NC(C)=C2c2nc(-c3ccc(C#N)cc3)cs2)cc1` (stereo not drawn) [Example 64], for which the CC50 at 48 h in data set [1] is less than 50 µM. Also, in the data set with HIV-1Ba-L [2], the “TI (TC50/IC50)” value is given as “A (A = TI (TC50/IC50) ≧100.0)” and the IC50 was less than 1 µM. Further, in the data set on HIV-1Ba-L [3], the “TI (TC50/IC50)” value was “B (B < 100.0-50.0)” and the IC50 was less than 1 µM. Moreover, the CC50 at 7 days in data set [4] was no less than 100 µM.

Consider `CC1=C(c2nc(-c3cccc(C#N)c3)cs2)C(c2cccc(O)c2)NC(=O)N1C` (stereo not drawn) [Example 68], for which the CC50 at 48 h in data set [1] is no less than 100 µM. In the data set with HIV-1Ba-L [2], the “TI (TC50/IC50)” value is “D (D < 10.0)” and the IC50 lay within 5 to 100 µM. Moreover, in the data set with HIV-1Ba-L [3], the “TI (TC50/IC50)” value was “D (D < 10.0)” and the IC50 fell in the range of 5 to 100 µM. The CC50 at 7 days in data set [4] is 50 to 100 µM.

In the case of `CC1=C(c2nc(-c3ccc(C#N)cc3)cs2)C(c2cccc(O)c2)NC(=O)N1C` (stereo not drawn) [Example 69], the CC50 at 48 h in data set [1] was no less than 100 µM. In the data set on HIV-1Ba-L [2], the “TI (TC50/IC50)” value is “C (C < 50.0-10.0)” and the half-maximal inhibitory concentration (IC50) fell in the range of 1 to 5 µM. Moreover, in the data set with HIV-1Ba-L [3], the “TI (TC50/IC50)” value was “B (B < 100.0-50.0)” and the IC50 fell in the range of 1 to 5 µM. Moreover, the CC50 at 7 days in data set [4] is no less than 100 µM.

As for `CC1=C(c2nc(-c3ccc(C#N)cc3)cs2)C(c2cccc(C(F)(F)F)c2)NC(=O)N1` (stereo not drawn) [Example 71], in data set [1], the CC50 at 48 h is no less than 100 µM. In addition, in the data set with HIV-1Ba-L [2], the “TI (TC50/IC50)” value was “C (C < 50.0-10.0)” and the IC50 was in the range of 5 to 100 µM. In addition, in the data set with HIV-1Ba-L [3], the “TI (TC50/IC50)” value is “B (B < 100.0-50.0)” and the IC50 was 1 to 5 µM. Moreover, the CC50 at 7 days in data set [4] was no less than 100 µM.
